Source: ChEMBL document CHEMBL1132343, “Carboxylic acid analogues of tamoxifen: (Z)-2-[p-(1, 2-diphenyl-1-butenyl)phenoxy]-N,N-dimethylethylamine. Estrogen receptor affinity and estrogen antagonist effects in MCF-7 cells” (J Med Chem, 1999)

Assays:
MCF7 [1] = experiment: Inhibition of estrogen-induced MCF-7 cell proliferation at 10000 nM; assay type: functional, Homo sapiens
MCF7 [2] = experiment: Inhibition of MCF-7 cell proliferation at 10000 nM; assay type: functional, Homo sapiens
MCF7 [3] = experiment: Inhibition of MCF-7 cell proliferation at 10 nM; assay type: functional, Homo sapiens
MCF7 [4] = experiment: Inhibition of MCF-7 cell proliferation at 100 nM; assay type: functional, Homo sapiens
Estrogen receptor = target: T1, Estrogen receptor (Homo sapiens, UniProt P03372)
T1 sequence (P03372 whole entry): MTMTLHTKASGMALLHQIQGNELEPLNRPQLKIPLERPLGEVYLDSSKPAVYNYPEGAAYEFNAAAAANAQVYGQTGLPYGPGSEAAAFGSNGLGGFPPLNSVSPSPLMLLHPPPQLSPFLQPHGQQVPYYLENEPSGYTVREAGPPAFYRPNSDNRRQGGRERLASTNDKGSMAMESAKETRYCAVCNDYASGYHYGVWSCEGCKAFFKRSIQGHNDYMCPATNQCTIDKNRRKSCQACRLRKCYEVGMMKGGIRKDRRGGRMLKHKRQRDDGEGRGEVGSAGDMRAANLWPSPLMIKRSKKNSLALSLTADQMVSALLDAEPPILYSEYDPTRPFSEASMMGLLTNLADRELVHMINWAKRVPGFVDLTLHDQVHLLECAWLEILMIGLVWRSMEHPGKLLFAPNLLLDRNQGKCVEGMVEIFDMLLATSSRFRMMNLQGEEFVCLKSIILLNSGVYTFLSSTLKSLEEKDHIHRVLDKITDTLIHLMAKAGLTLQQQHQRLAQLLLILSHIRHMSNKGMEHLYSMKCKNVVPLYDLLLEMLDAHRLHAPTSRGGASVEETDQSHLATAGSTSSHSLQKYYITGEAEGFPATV
Description: Displacement of [3H]17-beta-estradiol from human estrogen receptor alpha

MCF7 [5] = experiment: Inhibition of MCF-7 cell proliferation at 1000 nM; assay type: functional, Homo sapiens

SMILES	Cell number (MCF7 [1])	Cell number (MCF7 [2])	Cell number (MCF7 [3])	Cell number (MCF7 [4])	IC50 (Estrogen receptor)	Cell number (MCF7 [5])
CC/C(=C(\c1ccccc1)c1ccc(OCCN(C)C)cc1)c1ccccc1 [TAMOXIFEN]	31%	24%	97%	72%	–	–
O=C(O)CCCOc1ccc(/C(=C/CCc2ccccc2)c2ccc(O)cc2)cc1	18%	–	74%	25%	235 nM	20%
CC/C(=C(/c1ccc(O)cc1)c1cccc(OCC(=O)O)c1)c1ccccc1	–	100%	–	–	> 11 nM	–
CC/C(=C(\c1ccc(O)cc1)c1ccc(OCC(=O)O)cc1)c1ccccc1	–	102%	–	–	500 nM	96%
O=C(O)CCCOc1ccc(/C(=C/CCc2ccccc2)c2cccc(O)c2)cc1	50%	19%	89%	91%	1700 nM	–
CC[C@](C)(c1ccccc1)[C@@H](c1ccc(O)cc1)c1ccc(OCCCC(=O)O)cc1	–	68%	–	99%	6000 nM	102%
CC/C(=C(/c1ccc(OCC(=O)O)cc1)c1cccc(O)c1)c1ccccc1	78%	52%	99%	82%	1440 nM	–
